These results are taken from patent US20230159510A1, “NOVEL PRMT5 INHIBITORS” (AMGEN INC., priority 2020, published 2023).

One test relates to HCT116 MTAP null cells. Kind of test: HCT116 proliferation assay, MTAP null cells (CellTiter-Glo, 6 days). It counts as cell-based. The settings on record: 144 h, read-out: Protif_ HCT116-MTAP null IC50. How it is done:
(§1) HCT116 MTAP null and WT cells were seeded in 96-well tissue culture plates in RPMI 1640 media + 10% fetal bovine serum. Plates were incubated overnight at 37° C. and 5% CO2. Cells were then treated with a 8- or 9-point serial dilution of compound, using a top concentration of 1 or 10 µM, 1:3 serial dilution steps and, a DMSO-only control. Cells were incubated in the presence of drug for 6 days. Effects on cell viability were measured with the CellTiter-Glo® Luminescent Cell Viability Assay (Promega) per manufacturer’s recommendation. Assay plates were read on an EnVision™ Multilabel Reader using the Ultra-Sensitive luminescence module.
Background: Cellular ATP, detected with luciferase, serves as a proxy for viable cell number.

Another test concerns HCT116 WT cells. Kind of test: HCT116 proliferation assay, WT cells (CellTiter-Glo, 6 days). The settings on record: Homo sapiens, HCT-116, 144 h, read-out: Prolif_HCT116-WT IC50. It counts as cell-based. On the procedure:
as §1

Each structure is given as a SMILES string. Where two headings read alike, the source gives them in different places.

The IC50 is the concentration that gives 50% inhibition. As to `C[C@H](c1ncccn1)N(Cc1ccc(OCC(F)(F)F)nn1)C(=O)c1cnc2nc(N)c(Br)cc2c1` [Example 793, (R)-7-amino-6-bromo-N-(1-(pyrimidin-2-yl)ethyl)-N-((6-(2,2,2-trifluoroethoxy)pyridazin-3-yl)methyl)-1,8-naphthyridine-3-carboxamide], the IC50 was 783 nM with HCT116 MTAP null cells (HCT116-MTAP null) and over 10000 nM in the test with HCT116 WT cells.

For `[2H]C([2H])([2H])c1cc2cc(C(=O)N(Cc3ccc(C(F)(F)F)cn3)CC(C)C)ccc2nc1N` [Example 398, 2-amino-N-isobutyl-3-(methyl-d3)-N-((5-(trifluoromethyl)pyridin-2-yl)methyl)quinoline-6-carboxamide], the half-maximal inhibitory concentration (IC50) with HCT116 MTAP null cells came out at 247 nM; in the test on HCT116 WT cells it was 4780 nM.

Consider `Nc1nc2ccc(C(=O)N(Cc3ccc(Br)nn3)[C@@H]3CCCn4ncnc43)cc2cc1Br` [Example 758, (R)-2-amino-3-bromo-N-((6-bromopyridazin-3-yl)methyl)-N-(5,6,7,8-tetrahydro-[1,2,4]triazolo[1,5-a]pyridin-8-yl)quinoline-6-carboxamide], for which the IC50 in the test with HCT116 MTAP null cells (HCT116-MTAP null) is 337 nM; with HCT116 WT cells it was over 10000 nM.

For the compound `Cc1cc2cc(C(=O)N(Cc3ccc(C(C)(C)O)cn3)[C@H](C)c3ncccn3)ccc2nc1N` [Example 801, 2-amino-N-((5-(2-hydroxy-2-propanyl)-2-pyridinyl)methyl)-3-methyl-N-((1R)-1-(2-pyrimidinyl)ethyl)-6-quinolinecarboxamide], the IC50 with HCT116 MTAP null cells (HCT116-MTAP null) was 533 nM; in the test on HCT116 WT cells, over 10000 nM.

Consider `Cc1cc2cc(C(=O)N(Cc3ccc(C(F)(F)F)cn3)[C@H](C)c3ncon3)ccc2nc1N` (single isomer, unassigned) [Example 818], for which the half-inhibitory concentration (IC50) worked out at 24 nM in the test with HCT116 MTAP null cells (HCT116-MTAP null) and 372 nM with HCT116 WT cells.

Consider `Cc1cc2cc(C(=O)N(Cc3ccc(C(F)(F)F)cn3)[C@@H](C)c3ccc(F)cn3)ccc2nc1N` (single isomer, unassigned) [Example 485], for which the IC50 with HCT116 MTAP null cells (HCT116-MTAP null) turned out to be 734 nM; in the test with HCT116 WT cells, 4680 nM.

Regarding `Cc1cc2cc(C(=O)N(Cc3ccc(C(F)(F)F)cn3)[C@@H]3CC(F)(F)C[C@H]3O)ccc2nc1N` (single isomer, unassigned) [Example 780], the IC50 stood at 144 nM in the test with HCT116 MTAP null cells (HCT116-MTAP null) and 1800 nM in the test on HCT116 WT cells.

As to `N#CC1(CN(Cc2ccc(C(F)(F)F)cn2)C(=O)c2ccc3nc(N)c(Br)cc3c2)CC1` [Example 828, 2-amino-3-bromo-N-((1-cyanocyclopropyl)methyl)-N-((5-(trifluoromethyl)pyridin-2-yl)methyl)quinoline-6-carboxamide], the figures for the IC50 with HCT116 MTAP null cells (HCT116-MTAP null) and with HCT116 WT cells were 910 nM and over 10000 nM, respectively.

On to `CO[C@@H]1Cc2ccccc2[C@H]1N(Cc1ccc(C(F)(F)F)cn1)C(=O)c1ccc2nc(N)c(C)cc2c1` [Example 751, 2-amino-N-((1R,2R)-2-methoxy-2,3-dihydro-1H-inden-1-yl)-3-methyl-N-((5-(trifluoromethyl)-2-pyridinyl)methyl)-6-quinolinecarboxamide], for which the IC50 in the test on HCT116 MTAP null cells (HCT116-MTAP null) was found to be 144 nM; in the test on HCT116 WT cells, 1740 nM.

On to `COc1ccc(CN(C(=O)c2ccc3nc(N)c(C)cc3c2)[C@H](C)c2ncccn2)cn1` (single isomer, unassigned) [Example 786], for which the figures for the IC50 in the test on HCT116 MTAP null cells (HCT116-MTAP null) and with HCT116 WT cells were 322 nM and over 10000 nM, respectively.

For the compound `CC[C@H](c1ncccn1)N(Cc1ccc(C(F)(F)F)cn1)C(=O)c1cnc2nc(N)c(I)cc2c1` (single isomer, unassigned) [Example 788], the IC50 with HCT116 MTAP null cells (HCT116-MTAP null) is 64 nM; in the test on HCT116 WT cells, 1590 nM.

`C[C@H](c1ncn(C)n1)N(Cc1ccc(C(F)F)cn1)C(=O)c1ccc2nc(N)c(I)cc2c1` [Example 839, (R)-2-amino-N-((5-(difluoromethyl)pyridin-2-yl)methyl)-3-iodo-N-(1-(1-methyl-1H-1,2,4-triazol-3-yl)ethyl)quinoline-6-carboxamide]: the IC50 turned out to be 57 nM in the test on HCT116 MTAP null cells (HCT116-MTAP null) and 1990 nM in the test on HCT116 WT cells.

Take `CO[C@@H]1CCCC[C@H]1N(Cc1ccc(C(F)(F)F)cn1)C(=O)c1cnc2nc(N)c(Br)cc2c1` (racemic) [Example 798, 7-amino-6-bromo-N-((1R,2R)-2-methoxycyclohexyl)-N-((5-(trifluoromethyl)pyridin-2-yl)methyl)-1,8-naphthyridine-3-carboxamide]: the IC50 in the test on HCT116 MTAP null cells (HCT116-MTAP null) worked out at 250 nM; in the test with HCT116 WT cells it was 6960 nM.

In the case of `COc1ccc(CN(C(=O)c2cnc3nc(N)c(Br)cc3c2)[C@H](C)c2ncccc2F)nn1` [Example 735, 7-amino-6-bromo-N-((1R)-1-(3-fluoro-2-pyridinyl)ethyl)-N-((6-methoxy-3-pyridazinyl)methyl)-1,8-naphthyridine-3-carboxamide], the IC50 in the test on HCT116 MTAP null cells (HCT116-MTAP null) was 220 nM; in the test with HCT116 WT cells, over 10000 nM.

As to `COC[C@@H](C)N(Cc1ccc(OC)nn1)C(=O)c1ccc2nc(N)c(C)cc2c1` [Example 789, 2-amino-N-((2R)-1-methoxy-2-propanyl)-N-((6-methoxy-3-pyridazinyl)methyl)-3-methyl-6-quinolinecarboxamide], the IC50 in the test on HCT116 MTAP null cells (HCT116-MTAP null) was 162 nM; with HCT116 WT cells, 6150 nM.

Take `Cc1cc2cc(C(=O)N(Cc3ccc(C(F)(F)F)cn3)[C@H](C)c3ccc(F)cn3)ccc2nc1N` (single isomer, unassigned) [Example 484]: the IC50 with HCT116 MTAP null cells (HCT116-MTAP null) amounted to 59 nM; in the test on HCT116 WT cells it was 2330 nM.

Take `N#CC[C@@H](C1CC1)N(Cc1ccc(C(F)(F)F)cn1)C(=O)c1ccc2nc(N)c(Br)cc2c1` [Example 778, (S)-2-amino-3-bromo-N-(2-cyano-1-cyclopropylethyl)-N-((5-(trifluoromethyl)pyridin-2-yl)methyl)quinoline-6-carboxamide]: the values for the IC50 with HCT116 MTAP null cells (HCT116-MTAP null) and with HCT116 WT cells were 72 nM and 2050 nM, respectively.

`CO[C@@H]1CCOC[C@H]1N(Cc1ccc(C(F)(F)F)cn1)C(=O)c1ccc2nc(N)c(C)cc2c1` (racemic) [Example 833, 2-Amino-N-((3R,4R)-4-methoxytetrahydro-2H-pyran-3-yl)-3-methyl-N-((5-(trifluoromethyl)-2-pyridinyl)methyl)-6-quinolinecarboxamide and 2-amino-N-((3S,4S)-4-methoxytetrahydro-2H-pyran-3-yl)-3-methyl-N-((5-(trifluoromethyl)-2-pyridinyl)methyl)-6-quinolinecarboxamide]: the IC50 in the test with HCT116 MTAP null cells (HCT116-MTAP null) was 39 nM; in the test on HCT116 WT cells, 1190 nM.

As for `Cc1cc2cc(C(=O)N(Cc3ccc(C(F)(F)F)cn3)[C@H]3CCC[C@@H]3OC(F)F)ccc2nc1N` (single isomer, unassigned) [Example 817], the values for the concentration for half-maximal inhibition (IC50) in the test on HCT116 MTAP null cells (HCT116-MTAP null) and in the test on HCT116 WT cells were 369 nM and 1310 nM, respectively.

In the case of `Cc1cc2cc(C(=O)N(Cc3ccc(N4CCOCC4)nn3)[C@H](C)c3ncccc3F)ccc2nc1N` [Example 823, 2-Amino-N-((1R)-1-(3-fluoro-2-pyridinyl)ethyl)-3-methyl-N-((6-(4-morpholinyl)-3-pyridazinyl)methyl)-6-quinolinecarboxamide], the values for the IC50 in the test on HCT116 MTAP null cells (HCT116-MTAP null) and with HCT116 WT cells were 41 nM and 695 nM, respectively.

Consider `Cc1cc2cc(C(=O)N(Cc3ccc(C#N)nc3C)[C@H](C)c3ncccn3)ccc2nc1N` (single isomer, unassigned) [Example 820], for which the IC50 in the test with HCT116 MTAP null cells (HCT116-MTAP null) amounted to 239 nM; in the test on HCT116 WT cells it was 3550 nM.

On to `Cc1cc2cc(C(=O)N(Cc3ccc(N4CCOCC4)nn3)C(C)c3ncccn3)c(F)cc2nc1N` (stereo in doubt) [Example 731, 2-amino-7-fluoro-3-methyl-N-((6-(4-morpholinyl)-3-pyridazinyl)methyl)-N-((1R)-1-(2-pyrimidinyl)ethyl)-6-quinolinecarboxamide], for which the figures for the IC50 with HCT116 MTAP null cells (HCT116-MTAP null) and with HCT116 WT cells were 50 nM and 693 nM, respectively.

As for `Cc1cc2cc(C(=O)N(Cc3ccccc3F)C3CC(c4ccc(OC(F)(F)F)cc4)C3)ccc2nc1N` (centres unmarked) [Example 587, 2-amino-N-(2-fluorobenzyl)-3-methyl-N-(3-(4-(trifluoromethoxy)phenyl)cyclobutyl)quinoline-6-carboxamide], the IC50 in the test on HCT116 MTAP null cells (HCT116-MTAP null) came out at 807 nM; in the test on HCT116 WT cells, 404 nM.

For `Cc1cc2cc(C(=O)N(Cc3ccc(C(F)(F)F)cn3)[C@@H]3CCOC[C@H]3O)ccc2nc1N` (single isomer, unassigned) [Example 815], the figures for the IC50 in the test with HCT116 MTAP null cells (HCT116-MTAP null) and with HCT116 WT cells were 250 nM and 5150 nM, respectively.

As for `Cc1cc2cc(C(=O)N(Cc3ccc4[nH]c(=O)[nH]c4c3)Cc3ccnc4[nH]ccc34)ccc2nc1N` [Example 589, N-((1H-pyrrolo[2,3-b]pyridin-4-yl)methyl)-2-amino-3-methyl-N-((2-oxo-2,3-dihydro-1H-benzo [d]imidazol-5-yl)methyl)quinoline-6-carboxamide], the IC50 with HCT116 MTAP null cells (HCT116-MTAP null) is 549 nM; in the test with HCT116 WT cells, over 1000 nM.

Regarding `C[C@H](c1ncccn1)N(Cc1ccc(Br)nn1)C(=O)c1ccc2nc(N)c(Br)cc2c1` [Example 740, (R)-2-amino-3-bromo-N-((6-bromopyridazin-3-yl)methyl)-N-(1-(pyrimidin-2-yl)ethyl)quinoline-6-carboxamide], the values for the IC50 with HCT116 MTAP null cells (HCT116-MTAP null) and in the test with HCT116 WT cells were 80 nM and 4400 nM, respectively.

On to `Cc1cc2cc(C(=O)N(Cc3ccc(C4CC4)cn3)[C@H](C)c3ncccn3)ccc2nc1N` [Example 821, (R)-2-amino-N-((5-cyclopropylpyridin-2-yl)methyl)-3-methyl-N-(1-(pyrimidin-2-yl)ethyl)quinoline-6-carboxamide], for which the IC50 in the test on HCT116 MTAP null cells (HCT116-MTAP null) turned out to be 19 nM; in the test with HCT116 WT cells, 372 nM.

Turning to `C[C@H](c1ncccn1)N(Cc1cc2c(cn1)OCCC2)C(=O)c1ccc2nc(N)c(I)cc2c1` (single isomer, unassigned) [Example 836], the IC50 is 129 nM in the test with HCT116 MTAP null cells (HCT116-MTAP null) and over 10000 nM in the test on HCT116 WT cells.
